According to patent US10689414B2 (Agios Pharmaceuticals, Inc., priority 2013, dated 2020):

How the values were obtained:
IDH1 R132H = IDH1 R132H (Homo sapiens (Human), UniProt O75874, R132H); assay: In vitro NADPH depletion assay for IDH1m R132H inhibitors; assay type: biochemical; conditions: IDH1 R132H enzyme, read-out: IDH R132H IC50
Procedure: A test compound is prepared as 10 mM stock in DMSO and diluted to 50× final concentration in DMSO, for a 50 μl reaction mixture. IDH enzyme activity converting alpha-ketoglutarate to 2-hydroxyglutaric acid is measured using a NADPH depletion assay. In the assay the remaining cofactor is measured at the end of the reaction with the addition of a catalytic excess of diaphorase and resazurin, to generate a fluorescent signal in proportion to the amount of NADPH remaining. […] The reaction is started with the addition of 10 μl of Substrate Mix ([…], 5 mM alpha-ketoglutarate, in Assay Buffer) and the mixture is incubated for 90 minutes at room temperature.

U87MG cells = assay: Cellular assay, inhibition of 2-HG production in U87MG cells; assay type: cell-based
In short: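 HT1080 or U87MG cells (U87MG kept with 500 ug/mL G418) seeded at 5000 cells/well and treated with compound at 0.2% final DMSO. Incubated 48 h at 37 °C. 2-HG inhibition determined by LC-MS. Viability read by CellTiter-Glo luminescence at 72 h post-dose.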

Sequence of IDH1 R132H (O75874 whole entry R132H): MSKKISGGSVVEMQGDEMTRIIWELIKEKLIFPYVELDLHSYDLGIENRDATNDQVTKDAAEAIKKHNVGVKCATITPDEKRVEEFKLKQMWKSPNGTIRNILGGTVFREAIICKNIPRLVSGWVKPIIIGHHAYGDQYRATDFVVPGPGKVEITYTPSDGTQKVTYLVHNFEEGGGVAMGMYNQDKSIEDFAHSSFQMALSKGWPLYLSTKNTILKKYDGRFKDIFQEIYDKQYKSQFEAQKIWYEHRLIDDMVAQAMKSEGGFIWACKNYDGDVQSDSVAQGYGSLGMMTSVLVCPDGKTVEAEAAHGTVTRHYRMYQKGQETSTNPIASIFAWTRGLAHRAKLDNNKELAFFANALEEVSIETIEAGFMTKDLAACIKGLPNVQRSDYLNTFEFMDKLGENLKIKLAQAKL

| Compound | IC50 (U87MG cells; Homo sapiens, U-87 MG, 48 h) | other results |
| --- | --- | --- |
| N#Cc1ccnc(N2C(=O)CC[C@H]2C(=O)N(c2cc(F)cc(F)c2)[C@H](C(=O)NC2CC(F)(F)C2)c2cc(Cl)ccc2Cl)c1 [Compound 201, (S)-1-(4-Cyanopyridin-2-yl)-N—((S)-1-(2,5-dichlorophenyl)-2-((3,3-difluorocyclobutyl)-amino)-2-oxoethyl)-N-(3,5-difluorophenyl)-5-oxopyrrolidine-2-carboxamide] | < 100 nM |  |
| N#Cc1ccnc(N2C(=O)CC[C@H]2C(=O)N(c2cc(F)cc(C3CC3)c2)[C@H](C(=O)NC2CCC(F)(F)CC2)c2ccccc2Cl)c1 [Compound 202, (S)—N—((S)-1-(2-Chlorophenyl)-2-((4,4-difluorocyclohexyl)amino)-2-oxoethyl)-1-(4-cyanopyridin-2-yl)-N-(3-cyclopropyl-5-fluorophenyl)-5-oxopyrrolidine-2-carboxamide] | < 100 nM |  |
| N#Cc1ccnc(N2C(=O)CC[C@H]2C(=O)N(c2ccc3[nH]ncc3c2)[C@H](C(=O)NC2CCC(F)(F)CC2)c2ccccc2Cl)c1 [Compound 203, (S)—N—((S)-1-(2-Chlorophenyl)-2-((4,4-difluorocyclohexyl)amino)-2-oxoethyl)-1-(4-cyanopyridin-2-yl)-N-(1H-indazol-5-yl)-5-oxopyrrolidine-2-carboxamide] | < 100 nM |  |
| N#Cc1ccnc(N2C(=O)CC[C@H]2C(=O)N(c2cc(F)cc(C3CC3)c2)[C@H](C(=O)NC2CC(F)(F)C2)c2ccccc2Cl)c1 [Compound 204, (S)—N—((S)-1-(2-Chlorophenyl)-2-((3,3-difluorocyclobutyl)amino)-2-oxoethyl)-1-(4-cyanopyri-din-2-yl)-N-(3-cyclopropyl-5-fluorophenyl)-5-oxopyrrolidine-2-carboxamide] | < 100 nM |  |
| N#Cc1ccnc(N2C(=O)CC[C@H]2C(=O)N(c2ccc3[nH]ccc3c2)[C@H](C(=O)NC2CC(F)(F)C2)c2ccccc2Cl)c1 [Compound 206, (S)—N—((S)-1-(2-Chlorophenyl)-2-((3,3-difluorocyclobutyl)amino)-2-oxoethyl)-1-(4-cyanopyridin-2-yl)-N-(1H-indol-5-yl)-5-oxopyrrolidine-2-carboxamide] | < 100 nM |  |
| N#Cc1cc(F)cc(N(C(=O)[C@@H]2CCC(=O)N2c2cc(C#N)ccn2)[C@H](C(=O)NC2CC(F)(F)C2)c2ccccc2F)c1 [Compound 207, (S)—N-(3-Cyano-5-fluorophenyl)-1-(4-cyanopyridin-2-yl)-N—((S)-2-((3,3-difluorocyclobutyl)amino)-1-(2-fluorophenyl)-2-oxoethyl)-5-oxopyrrolidine-2-carboxamide] | < 100 nM |  |
| N#Cc1ccnc(N2C(=O)CC[C@H]2C(=O)N(c2cc(F)cc(F)c2)[C@H](C(=O)NC2CC(F)(F)C2)c2ccccc2)c1 [Compound 210, (S)-1-(4-Cyanopyridin-2-yl)-N—((S)-2-(3,3-difluorocyclobutylamino)-2-oxo-1-phenylethyl)-N-(3,5-difluorophenyl)-5-oxopyrrolidine-2-carboxamide] | < 100 nM |  |
| N#Cc1cc(F)cc(N(C(=O)[C@@H]2CCC(=O)N2c2cc(C#N)ccn2)[C@H](C(=O)NC2CC(F)(F)C2)c2ccccc2)c1 [Compound 211, (S)—N-(3-Cyano-5-fluorophenyl)-1-(4-cyanopyridin-2-yl)-N—((S)-2-(3,3-difluorocyclobutyl-amino)-2-oxo-1-phenylethyl)-5-oxopyrrolidine-2-carboxamide] | < 100 nM |  |
| (S)—N—((S)-1-(2-Chlorophenyl)-2-((4,4-difluorocyclohexyl)amino)-2-oxoethyl)-1-(4-cyanopyridin-2-yl)-N-(1H-indazol-6-yl)-5-oxopyrrolidine-2-carboxamide [Compound 136] |  | IC50 (U87MG cells; inhibition of 2-HG production, U87MG cells, 48 hours): < 100 nM |

Further lines, with some results ahead:

| IC50 (U87MG cells; Homo sapiens, U-87 MG, 48 h) | Compound | other results |
| --- | --- | --- |
| < 100 nM | CC(C)(C)c1cccc(N(C(=O)[C@@H]2CCC(=O)N2c2nccc(C#N)n2)[C@H](C(=O)NC2CC(F)(F)C2)c2ccccc2Cl)c1 [Compound 165, (S)—N-(3-(tert-Butyl)phenyl)-N—((S)-1-(2-chlorophenyl)-2-((3,3-difluorocyclobutyl)amino)-2-oxoethyl)-1-(4-cyanopyrimidin-2-yl)-5-oxopyrrolidine-2-carboxamide] | IC50 (IDH1 R132H): < 100 nM |
| < 100 nM | N#Cc1cc(F)cc(N(C(=O)[C@@H]2CCC(=O)N2c2cc(C#N)ccn2)[C@H](C(=O)NC2CCC(F)(F)CC2)c2ccccc2Cl)c1 [Compound 184, (S)—N—((S)-1-(2-Chlorophenyl)-2-(4,4-difluorocyclohexylamino)-2-oxoethyl)-N-(3-cyano-5-fluorophenyl)-1-(4-cyanopyridin-2-yl)-5-oxopyrrolidine-2-carboxamide] |  |
| < 100 nM | N#Cc1cc(F)cc(N(C(=O)[C@@H]2CCC(=O)N2c2nccc(C#N)n2)[C@H](C(=O)NC2CCC(F)(F)CC2)c2ccccc2Cl)c1 [Compound 185, (S)—N—((S)-1-(2-Chlorophenyl)-2-((4,4-difluorocyclohexyl)amino)-2-oxoethyl)-N-(3-cyano-5-fluorophenyl)-1-(4-cyanopyrimidin-2-yl)-5-oxopyrrolidine-2-carboxamide] |  |
| < 100 nM | N#Cc1ccnc(N2C(=O)CC[C@H]2C(=O)N(c2ccccc2F)[C@H](C(=O)NC2CC(F)(F)C2)c2ccccc2Cl)c1 [Compound 187, (S)—N—((S)-1-(2-Chlorophenyl)-2-((3,3-difluorocyclobutyl)amino)-2-oxoethyl)-1-(4-cyanopyridin-2-yl)-N-(2-fluorophenyl)-5-oxopyrrolidine-2-carboxamide] |  |
| < 100 nM | N#Cc1ccnc(N2C(=O)CC[C@H]2C(=O)N(c2cccc(F)c2F)[C@H](C(=O)NC2CC(F)(F)C2)c2ccccc2Cl)c1 [Compound 188, (S)—N—((S)-1-(2-Chlorophenyl)-2-((3,3-difluorocyclobutyl)amino)-2-oxoethyl)-1-(4-cyanopyridin-2-yl)-N-(2,3-difluorophenyl)-5-oxopyrrolidine-2-carboxamide] |  |
| < 100 nM | N#Cc1ccnc(N2C(=O)[C@@H](O)C[C@H]2C(=O)N(c2cccc(F)c2)[C@H](C(=O)NC2CCC(F)(F)CC2)c2ccccc2Cl)n1 [Compound 189, (2S,4S)—N—((S)-1-(2-Chlorophenyl)-2-((4,4-difluorocyclohexyl)amino)-2-oxoethyl)-1-(4-cyanopyrimidin-2-yl)-N-(3-fluorophenyl)-4-hydroxy-5-oxopyrrolidine-2-carboxamide] |  |
| < 100 nM | C[S@+]([O-])c1cc(F)cc(N(C(=O)[C@@H]2CCC(=O)N2c2cc(C#N)ccn2)[C@H](C(=O)NC2CC(F)(F)C2)c2ccccc2Cl)c1 [Compound 190, (S)—N—((S)-1-(2-Chlorophenyl)-2-(3,3-difluorocyclobutylamino)-2-oxoethyl)-1-(4-cyanopyridin-2-yl)-N-(3-fluoro-5-((S)-methylsulfinyl)phenyl)-5-oxopyrrolidine-2-carboxamide] |  |
| < 100 nM | N#Cc1cc(C#N)cc(N(C(=O)[C@@H]2CCC(=O)N2c2cc(C#N)ccn2)C(C(=O)NC2CC(F)(F)C2)c2ccccc2Cl)c1 (stereo partly drawn) [Compound 191, (2S)—N-(1-(2-Chlorophenyl)-2-((3,3-difluorocyclobutyl)amino)-2-oxoethyl)-1-(4-cyanopyridin-2-yl)-N-(3,5-dicyanophenyl)-5-oxopyrrolidine-2-carboxamide] |  |
| < 100 nM | N#Cc1ccnc(N2C(=O)CC[C@H]2C(=O)N(c2cncc(F)c2)[C@H](C(=O)NC2CCC(F)(F)CC2)c2ccccc2Cl)c1 [Compound 193, (S)—N—((S)-1-(2-Chlorophenyl)-2-(4,4-difluorocyclohexylamino)-2-oxoethyl)-1-(4-cyanopyridin-2-yl)-N-(5-fluoropyridin-3-yl)-5-oxopyrrolidine-2-carboxamide] |  |
| < 100 nM | N#Cc1ccnc(N2C(=O)CC[C@H]2C(=O)N(c2cccc(OC(F)F)c2)[C@H](C(=O)NC2CC(F)(F)C2)c2ccccc2Cl)n1 [Compound 194, (S)—N—((S)-1-(2-Chlorophenyl)-2-((3,3-difluorocyclobutyl)amino)-2-oxoethyl)-1-(4-cyanopyrimidin-2-yl)-N-(3-(difluoromethoxy)phenyl)-5-oxopyrrolidine-2-carboxamide] |  |
| < 100 nM | N#Cc1ccnc(N2C(=O)CC[C@H]2C(=O)N(c2cc(F)cc(F)c2)C(C(=O)NC2CC(F)(F)C2)c2cccc(Cl)c2Cl)c1 (stereo partly drawn) [Compound 195, (2S)-1-(4-Cyanopyridin-2-yl)-N-(1-(2,3-dichlorophenyl)-2-(3,3-difluoro-cyclobutylamino)-2-oxoethyl)-N-(3,5-difluorophenyl)-5-oxopyrrolidine-2-carboxamide] |  |
| < 100 nM | N#Cc1ccnc(N2C(=O)CC[C@H]2C(=O)N(c2cc(F)ccc2F)[C@H](C(=O)NC2CC(F)(F)C2)c2ccccc2Cl)c1 [Compound 197, (S)—N—((S)-1-(2-Chlorophenyl)-2-((3,3-difluorocyclobutyl)amino)-2-oxoethyl)-1-(4-cyanopyridin-2-yl)-N-(2,5-difluorophenyl)-5-oxopyrrolidine-2-carboxamide] |  |
| < 100 nM | N#Cc1ccnc(N2C(=O)CC[C@H]2C(=O)N(c2cc(F)cc(F)c2)[C@H](C(=O)NC2CC(F)(F)C2)c2ncccc2Cl)c1 [Compound 198, (S)—N—((S)-1-(3-Chloropyridin-2-yl)-2-(3,3-difluorocyclobutylamino)-2-oxoethyl)-1-(4-cyanopyridin-2-yl)-N-(3,5-difluorophenyl)-5-oxopyrrolidine-2-carboxamide] |  |
| < 100 nM | N#Cc1ccnc(N2C(=O)CC[C@H]2C(=O)N(c2cc(F)cc(F)c2)[C@H](C(=O)NC2CC(F)(F)C2)c2c(Cl)cccc2Cl)c1 [Compound 199, (S)-1-(4-Cyanopyridin-2-yl)-N—((S)-1-(2,6-dichlorophenyl)-2-((3,3-difluorocyclobutyl)amino)-2-oxoethyl)-N-(3,5-difluorophenyl)-5-oxopyrrolidine-2-carboxamide] |  |
